Data set [1] addresses T1, Programmed cell death 1 ligand 1 (Homo sapiens, UniProt Q9NZQ7). As to the kind of experiment: Antagonist activity at human PDL1 assessed as inhibition of human PD1 interaction with human PDL1 by ELISA.
For data set [2], the system named is CT26. As to the kind of experiment: Antitumor activity against mouse CT26 cells assessed as reduction in cell viability at 10 to 100 ug/ml incubated for 24 to 72 hrs by MTT assay. The conditions noted are these: dose 10-100 µg/ml, time 24-72 hrs. Type of data set: functional, cell-based. (Tetrazolium assays rely on reduction of a dye to a coloured formazan, in cell work by metabolically active cells.)

The target in data set [3] is T1, Programmed cell death 1 ligand 1. Put plainly: Antagonist activity at PDL1 overexpressing in IFN-gamma pretreated human LoVo cells assessed as restoration of human Jurkat T cell activation by measuring induction of IL-2 production at 10 ug/ml incubated for 24 hrs by ELISA. The conditions noted are these: filed as antagonist, dose 10.0 µg/ml. Background: An ELISA detects its analyte on a solid surface through an enzyme-linked reagent.

The test system of data set [4] is CT26. Put plainly: Antitumor activity against mouse CT26 cells xenografted in BALB/c mouse assessed as reduction in tumor growth at 10 mg/kg, ip administered for 7 days and measured on day 7 by caliper analysis. The format is functional, organism-based. The following applies: time 7.0 day.
A short description of data set [5]: Toxicity in BALB/c mouse xenografted with mouse CT26 cells assessed as reduction in body weight at 10 mg/kg, ip administered for 7 days and measured on day 7. Type of data set: organism-based. The conditions noted are these: in vivo, 168 h, time 7 day.
The nature of data set [6]: Toxicity in BALB/c mouse xenografted with mouse CT26 cells assessed as GPT level in blood at 10 mg/kg, ip administered for 7 days and measured on day 7 (reference value: 50 +/- 7 U/L). The format is organism-based. The conditions noted are these: in vivo, 168 h, time 7 day.
Data set [7] can be described thus: Toxicity in BALB/c mouse xenografted with mouse CT26 cells assessed as BUN level in blood at 10 mg/kg, ip administered for 7 days and measured on day 7 (reference value: 76 +/- 5 mg/dl). Type of data set: organism-based. The conditions noted are these: in vivo, 168 h, time 7 day.
The nature of data set [8]: Toxicity in BALB/c mouse xenografted with mouse CT26 cells assessed as effect on liver damage at 10 mg/kg, ip administered for 7 days and measured on day 7 by hematoxylin and eosin staining based assay. Type of data set: organism-based. The following applies: in vivo, 168 h, time 7 day.
The nature of data set [9]: Toxicity in BALB/c mouse xenografted with mouse CT26 cells assessed as GOT level in blood at 10 mg/kg, ip administered for 7 days and measured on day 7 (reference value: 93 +/- 8 U/L). Type of data set: organism-based. The conditions noted are these: in vivo, 168 h, time 7 day.
Data set [10] in a line: Toxicity in BALB/c mouse xenografted with mouse CT26 cells assessed as effect on spleen damage at 10 mg/kg, ip administered for 7 days and measured on day 7 by hematoxylin and eosin staining based assay. Type of data set: organism-based. The conditions noted are these: in vivo, 168 h, time 7 day.
Data set [11] can be described thus: Toxicity in BALB/c mouse xenografted with mouse CT26 cells assessed as effect on kidney damage at 10 mg/kg, ip administered for 7 days and measured on day 7 by hematoxylin and eosin staining based assay. The format is organism-based. The conditions noted are these: in vivo, 168 h, time 7 day.

The text below walks through data of ChEMBL document CHEMBL4680328, “Design, synthesis and evaluation of PD-L1 peptide antagonists as new anticancer agents for immunotherapy” (Bioorg Med Chem, 2021).

Activity calls are given as the source filed them. No cut-off for these calls is given here.

One may read the IC50 as the concentration at which inhibition is half-maximal.

T1 sequence (Q9NZQ7 whole entry): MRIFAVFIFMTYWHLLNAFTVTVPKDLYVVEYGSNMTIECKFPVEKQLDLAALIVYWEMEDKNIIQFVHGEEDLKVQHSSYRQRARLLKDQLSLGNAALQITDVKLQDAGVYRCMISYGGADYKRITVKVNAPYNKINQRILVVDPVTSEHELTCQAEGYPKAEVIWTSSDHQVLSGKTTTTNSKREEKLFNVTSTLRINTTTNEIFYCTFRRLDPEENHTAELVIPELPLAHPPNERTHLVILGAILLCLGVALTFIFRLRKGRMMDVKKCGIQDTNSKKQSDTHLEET

On to H-CGAISLAPKLQINES-OH, for which the IC50 in [1] was determined as 80.7 µM.

Take H-GAISLAPKLQIND-OH: in the data set on CT26 [2], the result was inactive. Besides, the IL-2 induction activity entry in data set [3] was “Active”. The TGI entry with CT26 [4] was “inactive”. For the same compound, the Activity result in [5] is listed as “Non-Toxic”. The IC50 in [1] is 4.4 µM.

Regarding H-CGAISLAPKAQIKES-OH, the IC50 in [1] is 19.2 µM.

Consider `CC[C@H](C)[C@H](NC(=O)[C@H](C)NC(=O)CN)C(=O)N[C@@H](CO)C(=O)N[C@@H](CC(C)C)C(=O)N[C@@H](C)C(=O)N1CCC[C@H]1C(=O)N[C@@H](CCCCN)C(=O)N[C@@H](CC(C)C)C(=O)N[C@@H](CCC(N)=O)C(=O)N[C@H](C(=O)N[C@@H](CC(N)=O)C(=O)N[C@H](CCC(=O)O)C(=O)O)[C@@H](C)CC`, for which, in the data set on CT26 [2], the result was inactive. Moreover, the IL-2 induction activity result in data set [3] is “Active”. In addition, the Activity in data set [6] was 54 U/L; in data set [7] it was 69 mg/dL; in data set [8] it was “Non-Toxic”; in data set [9] it was 82 U/L; in data set [10] it was “Non-Toxic”; in data set [5], “Non-Toxic”. The Activity result in data set [11] is given as “Non-Toxic”. Besides, the TGI result in the data set on CT26 [4] was “Active”. Besides, the IC50 in [1] came out at 1.56 µM.

With H-CGAISLAPKLQIKES-OH, the IC50 in data set [1] amounted to 93.5 µM.

`CC[C@H](C)[C@@H]1NC(=O)[C@H](C)NC(=O)CNC(=O)CNC(=O)[C@@H](CCC(=O)O)NC(=O)[C@H](CC(N)=O)NC(=O)[C@H]([C@@H](C)CC)NC(=O)[C@H](CCC(N)=O)NC(=O)[C@H](CC(C)C)NC(=O)[C@H](CCCCN)NC(=O)[C@@H]2CCCN2C(=O)[C@H](C)NC(=O)[C@H](CC(C)C)NC(=O)[C@H](CO)NC1=O`: the outcome in the data set with CT26 [2] was inactive. Besides, in data set [3], the IL-2 induction activity result is “Active”. Besides, the Activity is 51 U/L in data set [6]; 81 mg/dL in [7]; “Non-Toxic” in [8]; 97 U/L in data set [9]; “Non-Toxic” in data set [10]; “Non-Toxic” in data set [5]. In addition, in data set [11], the Activity entry is given as “Non-Toxic”. Moreover, the TGI result with CT26 [4] is “Active”. In addition, the IC50 in [1] was 0.71 µM.

On to `CC[C@H](C)[C@H](NC(=O)[C@H](C)NC(=O)CN)C(=O)N[C@@H](CO)C(=O)N[C@@H](CC(C)C)C(=O)N[C@@H](C)C(=O)N1CCC[C@H]1C(=O)N[C@@H](CCCCN)C(=O)N[C@@H](CC(C)C)C(=O)N[C@@H](CCC(N)=O)C(=O)N[C@H](C(=O)N[C@@H](CC(N)=O)C(=O)N[C@@H](CCC(=O)O)C(=O)O)[C@@H](C)CC`, for which, in the data set with CT26 [2], the result was inactive. In addition, in [3], the IL-2 induction activity result was “Active”. Further, the TGI result in the data set with CT26 [4] was “inactive”. The Activity result in [5] was “Non-Toxic”. In data set [1], the IC50 turned out to be 5.6 µM.
